This note sets out measurements from patent US4076814A, “Preventive and curative compositions against mycoplasmosis” (Sankyo Company Limited, priority 1975, dated 1978).

Values after ≈ are worked out from the molar mass of the structure shown.

Common to all, as to format: cell-based
One experiment concerns Mycoplasma gallisepticum. Kind of experiment: Antimicrobial test, conventional agar plate dilution method, Mycoplasma gallisepticum. As to conditions: for MIC: Mycoplasmoides gallisepticum, read-out: Minimum Inhibitory Concentration, Mycoplasma gallisepticum. The text has this:
(§1) ANTIMICROBIAL TEST AGAINST THREE STRAINS OF MYCOPLASMA
(§2) The test was effected by a conventional agar plate dilution method using the indicated strains of mycoplasma. The dithiocarbamic acid derivatives as shown below with Compound Nos. were employed in the test.

Another experiment has as its system Mycoplasma pulmonis. As to the kind of experiment: Antimicrobial test, conventional agar plate dilution method, Mycoplasma pulmonis. Conditions: for MIC: Mycoplasma, read-out: Minimum Inhibitory Concentration, Mycoplasma pulmonis.
From the text: as §1, §2

The test system of the next experiment is Mycoplasma hyorhinis. As to the kind of experiment: Antimicrobial test, conventional agar plate dilution method, Mycoplasma hyorhinis. Conditions: for MIC: Mycoplasma, read-out: Minimum Inhibitory Concentration, Mycoplasma hyorhinis.
From the text: as §1, §2

Turning to `CCN(CC)C(=S)SCCC(=O)CCc1ccccc1O` [compound 125, 2-(o-Hydroxyhydrocinnamoyl)ethyl diethyldithiocarbamate], the MIC with Mycoplasma gallisepticum, in the experiment on Mycoplasma pulmonis and in the experiment with Mycoplasma hyorhinis was 0.2 µg/mL (≈ 0.614 µM) in each case.

For `CC(=O)CCSC(=S)N1CCN(C)CC1` [Compound No. 92, 2-Acetylethyl 4-methyl-1-piperazinecarbodithioate], the MIC worked out at 0.2 µg/mL (≈ 0.812 µM) with Mycoplasma gallisepticum, 0.2 µg/mL (≈ 0.812 µM) in the experiment on Mycoplasma pulmonis and 0.025 µg/mL (≈ 0.101 µM) with Mycoplasma hyorhinis.

In the case of `Cc1cc(C)c(O)c(CSC(=S)N(C)C)c1` [compound 197, 2-Hydroxy-3,5-dimethylbenzyl dimethyldithiocarbamate], the results for the MIC in the experiment on Mycoplasma gallisepticum, in the experiment on Mycoplasma pulmonis and in the experiment on Mycoplasma hyorhinis were 0.39 µg/mL (≈ 1.53 µM), 0.39 µg/mL (≈ 1.53 µM) and 0.2 µg/mL (≈ 0.783 µM), respectively.

In the case of `O=c1cc(CO)oc(CSC(=S)N2CCCC2)c1O` [compound 258, 5-Hydroxy-2-hydroxymethyl-4-oxo-4H-pyran-6-ylmethyl-1-pyrrolidinecarbodithioate], the MIC turned out to be 0.78 µg/mL (≈ 2.59 µM) in the experiment on Mycoplasma gallisepticum, 0.78 µg/mL (≈ 2.59 µM) in the experiment with Mycoplasma pulmonis and 0.39 µg/mL (≈ 1.29 µM) in the experiment with Mycoplasma hyorhinis.

In the case of `O=c1cc(CO)oc(CSC(=S)N2CCOCC2)c1O` [compound 262, 5-Hydroxy-2-hydroxymethyl-4-oxo-4H-pyran-6-ylmethyl-4-morpholinecarbodithioate], the figures for the MIC in the experiment with Mycoplasma gallisepticum, with Mycoplasma pulmonis and in the experiment on Mycoplasma hyorhinis were 0.2 µg/mL (≈ 0.63 µM), 0.78 µg/mL (≈ 2.46 µM) and 0.78 µg/mL (≈ 2.46 µM), respectively.

Take `CC(=O)CCSC(=S)N1CCN(C)CC1.Cl` [compound 93, 2-Acetylethyl 4-methyl-1-piperazinecarbodithioate hydrochloride]: the figures for the MIC in the experiment on Mycoplasma gallisepticum, in the experiment on Mycoplasma pulmonis and with Mycoplasma hyorhinis were 0.1 µg/mL, 0.1 µg/mL and 0.05 µg/mL, respectively.

In the case of `CC(=O)C(CSC(=S)N(C)C)Cc1ccccc1` (stereo not drawn) [compound 156, 2-Acetyl-2-benzylethyl dimethyldithiocarbamate], the MIC with Mycoplasma gallisepticum, in the experiment on Mycoplasma pulmonis and in the experiment on Mycoplasma hyorhinis was 0.2 µg/mL (≈ 0.711 µM) in each case.

Consider `Cc1ccccc1C(=O)CCSC(=S)N(C)C` [compound 57, 2-(o-Toluoyl)ethyl dimethyldithiocarbamate], for which the MIC in the experiment with Mycoplasma gallisepticum turned out to be 0.1 µg/mL (≈ 0.374 µM); in the experiment on Mycoplasma pulmonis, 0.2 µg/mL (≈ 0.748 µM); in the experiment on Mycoplasma hyorhinis it was 0.1 µg/mL (≈ 0.374 µM).

With `Cc1cccc(C(=O)CCSC(=S)N(C)C)c1` [compound 56, 2-(m-Toluoyl)ethyl dimethyldithiocarbamate], the MIC was found to be 0.1 µg/mL (≈ 0.374 µM) in the experiment with Mycoplasma gallisepticum, 0.1 µg/mL (≈ 0.374 µM) in the experiment with Mycoplasma pulmonis and 0.05 µg/mL (≈ 0.187 µM) in the experiment with Mycoplasma hyorhinis.

Take `Cc1cc(CSC(=S)N2CCCC2C(=O)OCc2ccccc2)cc(C)c1O` (stereo not drawn) [compound 191, 4-Hydroxy-3,5-dimethylbenzyl 2-benzyloxycarbonyl-1-pyrrolidinecarbodithioate]: the MIC with Mycoplasma gallisepticum was 1.56 µg/mL (≈ 3.75 µM); in the experiment on Mycoplasma pulmonis, 1.56 µg/mL (≈ 3.75 µM); in the experiment with Mycoplasma hyorhinis it was 3.13 µg/mL (≈ 7.53 µM).

As for `CN1CCN(C(=S)SCc2oc(CO)cc(=O)c2O)CC1` [compound 263, 5-Hydroxy-2-hydroxymethyl-4-oxo-4H-pyran-6-ylmethyl-4-methyl-1-piperazinecarbodithioate], the MIC in the experiment with Mycoplasma gallisepticum was 1.56 µg/mL (≈ 4.72 µM); in the experiment on Mycoplasma pulmonis, 3.13 µg/mL (≈ 9.47 µM); with Mycoplasma hyorhinis, 3.13 µg/mL (≈ 9.47 µM).

Consider `CN(C)C(=S)SCCC(=O)C=Cc1ccccc1` [compound 134, 2-Cinnamoylethyl dimethyldithiocarbamate], for which the MIC in the experiment on Mycoplasma gallisepticum, in the experiment on Mycoplasma pulmonis and in the experiment with Mycoplasma hyorhinis was 0.2 µg/mL (≈ 0.716 µM) throughout.

With `CCN(CC)C(=S)SCc1cc(C)cc(C)c1O` [compound 199, 2-Hydroxy-3,5-dimethylbenzyl diethyldithiocarbamate], in the experiment with Mycoplasma gallisepticum, the “Minimum Inhibitory Concentration, Mycoplasma gallisepticum” value was determined as 0.39 µg/mL. Further, the “Minimum Inhibitory Concentration, Mycoplasma pulmonis” value in the experiment with Mycoplasma pulmonis worked out at 0.39 µg/mL. For the same compound, in the experiment on Mycoplasma hyorhinis, the “Minimum Inhibitory Concentration, Mycoplasma hyorhinis” value came out at 0.39 µg/mL.

Turning to `CCCCN(C)C(=S)SCC1CCCCC1=O` (stereo not drawn) [compound 7, 2-Oxocyclohexylmethyl n-butylmethyldithiocarbamate], the MIC with Mycoplasma gallisepticum, in the experiment with Mycoplasma pulmonis and in the experiment on Mycoplasma hyorhinis was 0.2 µg/mL (≈ 0.731 µM) throughout.

Consider `CCN(CC)C(=S)SCc1oc(CO)cc(=O)c1O` [compound 255, 5-Hydroxy-2-hydroxymethyl-4-oxo-4H-pyran-6-ylmethyl diethyldithiocarbamate], for which the MIC was 0.05 µg/mL (≈ 0.165 µM) in the experiment with Mycoplasma gallisepticum, 0.1 µg/mL (≈ 0.33 µM) in the experiment with Mycoplasma pulmonis and 0.05 µg/mL (≈ 0.165 µM) with Mycoplasma hyorhinis.

With `CCCc1cc(CSC(=S)N(C)C)cc(CSC(=S)N(C)C)c1O` [compound 248, 4-Hydroxy-5-dimethylthiocarbamoylthiomethyl-3-n-propylbenzyl dimethyldithiocarbamate], the results for the MIC with Mycoplasma gallisepticum, in the experiment with Mycoplasma pulmonis and in the experiment with Mycoplasma hyorhinis were 0.1 µg/mL (≈ 0.248 µM), 0.1 µg/mL (≈ 0.248 µM) and 0.2 µg/mL (≈ 0.497 µM), respectively.

In the case of `CC(C)C(=O)CCSC(=S)N(C)C` [compound 104, 2-Isobutyrylethyl dimethyldithiocarbamate], the MIC in the experiment on Mycoplasma gallisepticum, in the experiment on Mycoplasma pulmonis and in the experiment on Mycoplasma hyorhinis was 0.2 µg/mL (≈ 0.912 µM) in each case.

In the case of `CN(C)C(=S)SCCC(=O)c1cccnc1` [compound 69], the MIC in the experiment on Mycoplasma gallisepticum, in the experiment on Mycoplasma pulmonis and in the experiment on Mycoplasma hyorhinis was 0.1 µg/mL (≈ 0.393 µM) each time.

As for `CCN(CC)C(=S)SCCC(=O)C=Cc1ccccc1` [compound 135, 2-Cinnamoylethyl diethyldithiocarbamate], the MIC in the experiment on Mycoplasma gallisepticum, in the experiment with Mycoplasma pulmonis and with Mycoplasma hyorhinis was 0.2 µg/mL (≈ 0.65 µM) each time.

As to `CCN(CC)C(=S)SCc1c(C)cc2c(c1O)C1OCC34CCCC(C)(C)C3CCC(C)(O2)C14` (stereo not drawn) [compound 266, 16-Diethylthiocarbamoylthiomethylsiccanin], the MIC in the experiment with Mycoplasma gallisepticum, in the experiment on Mycoplasma pulmonis and in the experiment on Mycoplasma hyorhinis was 0.1 µg/mL (≈ 0.199 µM) throughout.

Regarding `O=C(CCSC(=S)N1CCOCC1)c1ccccc1O` [compound 42, 2-(o-Hydroxybenzoyl)ethyl 4-morpholinecarbodithioate], the MIC in the experiment with Mycoplasma gallisepticum came to 0.2 µg/mL (≈ 0.642 µM); with Mycoplasma pulmonis it was 0.2 µg/mL (≈ 0.642 µM); in the experiment on Mycoplasma hyorhinis, 0.39 µg/mL (≈ 1.25 µM).

For `CC(C)c1cc(CSC(=S)N2CCOCC2)cc(C(C)C)c1O` [compound 210, 4-Hydroxy-3,5-di-isopropylbenzyl 4-morpholinecarbodithioate], the MIC in the experiment with Mycoplasma gallisepticum, in the experiment with Mycoplasma pulmonis and in the experiment on Mycoplasma hyorhinis was 0.39 µg/mL (≈ 1.1 µM) in each case.

As for `CN(C)C(=S)SCc1cc(Cl)c(O)c(Cl)c1` [compound 232, 4-Hydroxy-3,5-dichlorobenzyl dimethyldithiocarbamate], the MIC with Mycoplasma gallisepticum amounted to 0.39 µg/mL (≈ 1.32 µM); in the experiment on Mycoplasma pulmonis it was 0.39 µg/mL (≈ 1.32 µM); in the experiment on Mycoplasma hyorhinis it was 0.2 µg/mL (≈ 0.675 µM).

For `CC(=O)CCSC(=S)N(C)C1CCCCC1` [compound 81, 2-Acetylethyl cyclohexylmethyldithiocarbamate], the MIC in the experiment on Mycoplasma gallisepticum, in the experiment on Mycoplasma pulmonis and in the experiment with Mycoplasma hyorhinis was 0.2 µg/mL (≈ 0.771 µM) each time.

In the case of `CN(C)C(=S)SCc1cc(CSC(=S)N(C)C)c(O)c(C(C)(C)C)c1` [compound 251, 2-Hydroxy-5-dimethylthiocarbamoylthiomethyl-3-t-butylbenzyl dimethyldithiocarbamate], the figures for the MIC with Mycoplasma gallisepticum, in the experiment with Mycoplasma pulmonis and in the experiment on Mycoplasma hyorhinis were 0.2 µg/mL (≈ 0.48 µM), 0.1 µg/mL (≈ 0.24 µM) and 0.2 µg/mL (≈ 0.48 µM), respectively.

Regarding `CC1=C(C=CC(=O)CCSC(=S)N(C)C)C(C)(C)CCC1` [compound 146, 2-[β-(2,6,6-Trimethylcyclohexene-1-yl)acryloyl]-ethyl dimethyldithiocarbamate], the MIC in the experiment with Mycoplasma gallisepticum, with Mycoplasma pulmonis and in the experiment with Mycoplasma hyorhinis was 0.39 µg/mL (≈ 1.2 µM) throughout.

As for `CC(C)(C)c1cc(CSC(=S)N2CCOCC2)cc(C(C)(C)C)c1O` [compound 219, 4-Hydroxy-3,5-di-t-butylbenzyl 4-morpholinecarbodithioate], the values for the MIC with Mycoplasma gallisepticum, with Mycoplasma pulmonis and in the experiment on Mycoplasma hyorhinis were 0.2 µg/mL (≈ 0.524 µM), 0.2 µg/mL (≈ 0.524 µM) and 0.1 µg/mL (≈ 0.262 µM), respectively.

Take `CCN(CC)C(=S)SCC(C)C(C)=O` (stereo not drawn) [compound 148, 2-Acetylpropyl diethyldithiocarbamate]: the MIC in the experiment on Mycoplasma gallisepticum, with Mycoplasma pulmonis and with Mycoplasma hyorhinis was 0.05 µg/mL (≈ 0.214 µM) throughout.

`CCN(CC)C(=S)SCC1CCCCC1=O` (stereo not drawn) [compound 6, 2-Oxocyclohexylmethyl diethyldithiocarbamate]: the values for the MIC in the experiment on Mycoplasma gallisepticum, in the experiment on Mycoplasma pulmonis and in the experiment on Mycoplasma hyorhinis were 0.1 µg/mL (≈ 0.385 µM), 0.1 µg/mL (≈ 0.385 µM) and 0.05 µg/mL (≈ 0.193 µM), respectively.

In the case of `Cc1cc2c(c(O)c1CSC(=S)N1CCOCC1)C1OCC34CCCC(C)(C)C3CCC(C)(O2)C14` (stereo not drawn) [compound 271, 16-(4-Morpholinethiocarbonylthiomethyl)siccanin], the MIC with Mycoplasma gallisepticum, in the experiment with Mycoplasma pulmonis and in the experiment on Mycoplasma hyorhinis was 1.56 µg/mL (≈ 3.01 µM) each time.

In the case of `CN(C)C(=S)SCc1oc(CO)cc(=O)c1O` [compound 254, 5-Hydroxy-2-hydroxymethyl-4-oxo-4H-pyran-6-ylmethyl dimethyldithiocarbamate], the MIC in the experiment with Mycoplasma gallisepticum, in the experiment on Mycoplasma pulmonis and in the experiment with Mycoplasma hyorhinis was 0.39 µg/mL (≈ 1.42 µM) in each case.

For the compound `CN(C)C(=S)SCCC(=O)C(C)(C)C` [compound 108, 2-Pivaroylethyl dimethyldithiocarbamate], the MIC with Mycoplasma gallisepticum, with Mycoplasma pulmonis and with Mycoplasma hyorhinis was 0.2 µg/mL (≈ 0.857 µM) throughout.

Take `Cc1cc(CSC(=S)N2CCOCC2)cc(C)c1O` [compound 194, 4-Hydroxy-3,5-dimethylbenzyl 4-morpholinecarbodithioate]: the MIC in the experiment with Mycoplasma gallisepticum was found to be 1.56 µg/mL (≈ 5.24 µM); in the experiment with Mycoplasma pulmonis, 1.56 µg/mL (≈ 5.24 µM); with Mycoplasma hyorhinis, 0.78 µg/mL (≈ 2.62 µM).

With `CN(C)C(=S)SCC1CCCC1=O` (stereo not drawn) [Compound No. 1, 2-Oxocyclopentylmethyl dimethyldithiocarbamate], the MIC in the experiment with Mycoplasma gallisepticum, in the experiment on Mycoplasma pulmonis and in the experiment with Mycoplasma hyorhinis was 0.05 µg/mL (≈ 0.23 µM) throughout.

As for `CCN(CC)C(=S)SCCC(=O)CCc1ccc(OC)cc1` [compound 129, 2-(p-Methoxyhydrocinnamoyl)ethyl diethyldithiocarbamate], the MIC in the experiment on Mycoplasma gallisepticum, in the experiment on Mycoplasma pulmonis and with Mycoplasma hyorhinis was 0.2 µg/mL (≈ 0.589 µM) in each case.

Turning to `CN(C)C(=S)SCCC(=O)c1ccccc1` [compound 23, 2-Benzoylethyl dimethyldithiocarbamate], the MIC in the experiment on Mycoplasma gallisepticum stood at 0.05 µg/mL (≈ 0.197 µM); in the experiment on Mycoplasma pulmonis, 0.025 µg/mL (≈ 0.0987 µM); in the experiment on Mycoplasma hyorhinis, 0.05 µg/mL (≈ 0.197 µM).
